According to ChEMBL document CHEMBL5058643, “Data for DCP probe BI-2081” (2022):

Assays:
Settings in all cases: Compound concentration 10.0 uM
[1] = molecular target: 5-hydroxytryptamine receptor 1B (Homo sapiens) (UniProt P28222)
[2] = molecular target: Histamine H3 receptor (Homo sapiens) (UniProt Q9Y5N1)
[3] = molecular target: Beta-3 adrenergic receptor (Homo sapiens) (UniProt P13945)
[4] = molecular target: Sodium-dependent noradrenaline transporter (Homo sapiens) (UniProt P23975)
[5] = molecular target: T1, 5-hydroxytryptamine receptor 1A (Homo sapiens) (UniProt P08908)
T1 sequence (whole entry): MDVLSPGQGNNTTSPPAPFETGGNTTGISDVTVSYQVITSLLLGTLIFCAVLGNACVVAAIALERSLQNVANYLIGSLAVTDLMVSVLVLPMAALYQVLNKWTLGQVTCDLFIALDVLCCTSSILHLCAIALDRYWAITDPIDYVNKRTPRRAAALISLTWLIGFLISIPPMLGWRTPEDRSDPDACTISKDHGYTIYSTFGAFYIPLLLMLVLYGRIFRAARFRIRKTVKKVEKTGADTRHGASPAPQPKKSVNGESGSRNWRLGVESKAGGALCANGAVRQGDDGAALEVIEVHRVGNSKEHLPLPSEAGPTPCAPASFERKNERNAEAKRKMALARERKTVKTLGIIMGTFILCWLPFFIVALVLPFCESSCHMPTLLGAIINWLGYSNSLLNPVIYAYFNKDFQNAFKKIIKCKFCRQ

[6] = molecular target: Delta-type opioid receptor (Homo sapiens) (UniProt P41143)
[7] = molecular target: Kappa-type opioid receptor (Homo sapiens) (UniProt P41145)
[8] = molecular target: D(1B) dopamine receptor (Homo sapiens) (UniProt P21918)
[9] = molecular target: T2, 5-hydroxytryptamine receptor 3A (Homo sapiens) (UniProt P46098)
T2 sequence (whole entry): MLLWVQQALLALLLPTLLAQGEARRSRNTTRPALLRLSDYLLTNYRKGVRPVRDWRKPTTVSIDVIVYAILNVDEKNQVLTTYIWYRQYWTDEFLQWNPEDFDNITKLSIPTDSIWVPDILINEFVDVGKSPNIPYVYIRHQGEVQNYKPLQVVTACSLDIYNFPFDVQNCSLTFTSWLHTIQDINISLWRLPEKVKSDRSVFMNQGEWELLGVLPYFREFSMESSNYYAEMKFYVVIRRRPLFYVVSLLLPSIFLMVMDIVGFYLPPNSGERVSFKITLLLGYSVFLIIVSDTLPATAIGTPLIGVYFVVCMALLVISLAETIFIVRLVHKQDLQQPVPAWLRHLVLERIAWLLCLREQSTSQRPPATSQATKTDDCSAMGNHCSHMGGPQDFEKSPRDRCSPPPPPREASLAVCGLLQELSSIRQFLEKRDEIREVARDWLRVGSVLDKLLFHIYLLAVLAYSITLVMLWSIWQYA

[10] = molecular target: Sigma non-opioid intracellular receptor 1 (Homo sapiens) (UniProt Q99720)
[11] = molecular target: T3, Alpha-1D adrenergic receptor (Homo sapiens) (UniProt P25100)
T3 sequence (whole entry): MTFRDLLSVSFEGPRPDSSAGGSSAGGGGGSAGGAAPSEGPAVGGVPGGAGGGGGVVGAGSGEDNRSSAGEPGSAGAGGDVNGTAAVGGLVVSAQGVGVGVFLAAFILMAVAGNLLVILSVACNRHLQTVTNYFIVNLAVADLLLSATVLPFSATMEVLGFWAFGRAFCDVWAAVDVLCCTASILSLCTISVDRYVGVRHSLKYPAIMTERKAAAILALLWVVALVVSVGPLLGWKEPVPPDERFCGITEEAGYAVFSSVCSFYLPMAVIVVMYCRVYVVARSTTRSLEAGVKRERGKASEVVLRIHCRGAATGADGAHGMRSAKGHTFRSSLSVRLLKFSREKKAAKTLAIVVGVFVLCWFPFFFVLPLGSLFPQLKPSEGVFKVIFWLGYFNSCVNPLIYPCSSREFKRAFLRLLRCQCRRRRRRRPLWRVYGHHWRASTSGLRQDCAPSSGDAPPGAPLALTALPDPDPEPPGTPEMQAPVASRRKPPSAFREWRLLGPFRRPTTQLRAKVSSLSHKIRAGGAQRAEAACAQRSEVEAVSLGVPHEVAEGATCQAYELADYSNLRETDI

[12] = molecular target: T4, Alpha-2B adrenergic receptor (Homo sapiens) (UniProt P18089)
T4 sequence (whole entry): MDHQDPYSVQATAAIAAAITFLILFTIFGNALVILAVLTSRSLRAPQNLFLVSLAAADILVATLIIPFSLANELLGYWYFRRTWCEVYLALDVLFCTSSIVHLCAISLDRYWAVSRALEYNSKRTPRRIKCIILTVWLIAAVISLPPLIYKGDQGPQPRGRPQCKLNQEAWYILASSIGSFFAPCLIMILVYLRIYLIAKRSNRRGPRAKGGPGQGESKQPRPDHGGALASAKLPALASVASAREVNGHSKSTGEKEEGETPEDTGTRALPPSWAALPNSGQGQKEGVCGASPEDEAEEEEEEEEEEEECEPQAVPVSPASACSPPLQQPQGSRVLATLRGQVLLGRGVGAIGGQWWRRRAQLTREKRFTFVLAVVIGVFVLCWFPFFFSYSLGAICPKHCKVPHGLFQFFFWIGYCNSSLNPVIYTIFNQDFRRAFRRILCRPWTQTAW

[13] = organism: Rattus norvegicus
[14] = molecular target: Histamine H4 receptor (Homo sapiens) (UniProt Q9H3N8)
[15] = molecular target: Cholecystokinin receptor type A (Homo sapiens) (UniProt P32238); experiment: CCKA/H Eurofins SafetyScreen44 (BI)
[16] = molecular target: 5-hydroxytryptamine receptor 2C (Homo sapiens) (UniProt P28335)
[17] = molecular target: Sodium-dependent serotonin transporter (Homo sapiens) (UniProt P31645)
[18] = molecular target: Sigma intracellular receptor 2 (Homo sapiens) (UniProt Q5BJF2)
Sigma intracellular receptor 2 (Homo sapiens), sequence (Q5BJF2 whole entry): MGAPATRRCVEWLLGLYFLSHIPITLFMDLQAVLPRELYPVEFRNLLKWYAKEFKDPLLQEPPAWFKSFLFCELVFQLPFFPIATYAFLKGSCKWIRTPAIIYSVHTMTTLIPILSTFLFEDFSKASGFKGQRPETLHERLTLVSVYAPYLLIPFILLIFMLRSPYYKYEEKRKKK

D(1B) dopamine receptor (Homo sapiens), sequence (P21918 whole entry): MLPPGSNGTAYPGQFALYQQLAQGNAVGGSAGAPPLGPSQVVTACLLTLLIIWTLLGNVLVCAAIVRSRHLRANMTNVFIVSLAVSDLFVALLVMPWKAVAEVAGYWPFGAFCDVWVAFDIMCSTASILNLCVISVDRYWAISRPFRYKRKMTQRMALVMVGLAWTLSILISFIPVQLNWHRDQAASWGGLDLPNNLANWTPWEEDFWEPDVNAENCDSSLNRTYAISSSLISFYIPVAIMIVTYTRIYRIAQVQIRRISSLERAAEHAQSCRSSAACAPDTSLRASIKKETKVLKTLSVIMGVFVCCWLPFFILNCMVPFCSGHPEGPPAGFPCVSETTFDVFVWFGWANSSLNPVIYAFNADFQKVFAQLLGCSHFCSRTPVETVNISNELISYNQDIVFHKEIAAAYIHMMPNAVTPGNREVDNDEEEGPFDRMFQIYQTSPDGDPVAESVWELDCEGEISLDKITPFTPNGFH
Histamine H3 receptor (Homo sapiens), sequence (Q9Y5N1 whole entry): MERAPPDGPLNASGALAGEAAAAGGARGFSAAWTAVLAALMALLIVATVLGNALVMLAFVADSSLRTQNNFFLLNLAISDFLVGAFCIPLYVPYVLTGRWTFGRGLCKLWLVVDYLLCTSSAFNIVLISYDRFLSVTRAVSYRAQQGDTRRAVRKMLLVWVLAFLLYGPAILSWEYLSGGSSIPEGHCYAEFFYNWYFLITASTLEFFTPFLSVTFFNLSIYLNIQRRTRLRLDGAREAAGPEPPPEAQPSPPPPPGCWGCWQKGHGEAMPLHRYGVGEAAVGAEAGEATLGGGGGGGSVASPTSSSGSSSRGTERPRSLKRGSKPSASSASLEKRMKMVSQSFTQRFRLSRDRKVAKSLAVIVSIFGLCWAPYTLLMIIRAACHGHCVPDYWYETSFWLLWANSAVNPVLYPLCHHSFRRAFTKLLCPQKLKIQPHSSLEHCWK
Sodium-dependent noradrenaline transporter (Homo sapiens), sequence (P23975 whole entry): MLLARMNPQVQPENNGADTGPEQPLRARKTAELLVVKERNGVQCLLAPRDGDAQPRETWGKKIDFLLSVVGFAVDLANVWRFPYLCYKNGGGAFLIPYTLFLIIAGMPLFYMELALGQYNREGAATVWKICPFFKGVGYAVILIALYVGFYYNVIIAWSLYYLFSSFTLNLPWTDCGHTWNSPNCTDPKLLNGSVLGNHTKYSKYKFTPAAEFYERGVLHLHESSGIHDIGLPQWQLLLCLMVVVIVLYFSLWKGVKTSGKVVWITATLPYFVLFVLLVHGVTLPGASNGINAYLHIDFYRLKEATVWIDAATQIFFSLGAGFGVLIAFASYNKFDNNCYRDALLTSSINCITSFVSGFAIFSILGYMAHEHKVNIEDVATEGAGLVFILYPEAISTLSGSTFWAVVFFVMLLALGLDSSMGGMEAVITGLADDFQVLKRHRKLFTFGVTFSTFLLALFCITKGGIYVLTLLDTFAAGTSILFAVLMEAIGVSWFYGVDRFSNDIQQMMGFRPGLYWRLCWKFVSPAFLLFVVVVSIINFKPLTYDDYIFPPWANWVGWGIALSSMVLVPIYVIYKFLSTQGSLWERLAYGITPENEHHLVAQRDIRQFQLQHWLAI
Sodium-dependent serotonin transporter (Homo sapiens), sequence (P31645 whole entry, looked up): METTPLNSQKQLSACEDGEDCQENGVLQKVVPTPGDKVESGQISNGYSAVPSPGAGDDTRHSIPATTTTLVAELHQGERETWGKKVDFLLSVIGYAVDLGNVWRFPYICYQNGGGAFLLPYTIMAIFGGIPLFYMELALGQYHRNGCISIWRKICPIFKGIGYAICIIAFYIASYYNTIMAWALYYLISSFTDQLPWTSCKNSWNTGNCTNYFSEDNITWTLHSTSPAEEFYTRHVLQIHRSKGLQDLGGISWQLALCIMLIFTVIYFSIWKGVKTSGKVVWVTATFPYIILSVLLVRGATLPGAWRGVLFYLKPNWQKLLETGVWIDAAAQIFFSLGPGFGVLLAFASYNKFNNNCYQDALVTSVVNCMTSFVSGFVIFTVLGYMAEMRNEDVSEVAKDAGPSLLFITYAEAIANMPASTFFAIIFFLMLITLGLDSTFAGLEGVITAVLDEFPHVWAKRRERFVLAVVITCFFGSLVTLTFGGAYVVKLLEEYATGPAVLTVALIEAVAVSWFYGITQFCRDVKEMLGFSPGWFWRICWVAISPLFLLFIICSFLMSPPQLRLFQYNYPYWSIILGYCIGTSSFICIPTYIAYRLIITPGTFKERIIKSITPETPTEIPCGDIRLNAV
Kappa-type opioid receptor (Homo sapiens), sequence (P41145 whole entry): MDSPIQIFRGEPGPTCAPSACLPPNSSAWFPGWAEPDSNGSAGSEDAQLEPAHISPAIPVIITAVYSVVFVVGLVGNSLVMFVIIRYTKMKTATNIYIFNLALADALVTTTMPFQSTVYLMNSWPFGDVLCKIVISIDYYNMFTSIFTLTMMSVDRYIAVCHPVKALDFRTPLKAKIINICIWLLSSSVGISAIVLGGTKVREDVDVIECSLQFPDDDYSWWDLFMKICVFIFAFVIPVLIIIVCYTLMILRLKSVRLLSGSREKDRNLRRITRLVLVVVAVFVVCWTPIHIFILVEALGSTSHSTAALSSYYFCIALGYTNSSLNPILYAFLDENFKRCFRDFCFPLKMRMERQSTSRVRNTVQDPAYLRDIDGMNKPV
5-hydroxytryptamine receptor 1B (Homo sapiens), sequence (P28222 whole entry): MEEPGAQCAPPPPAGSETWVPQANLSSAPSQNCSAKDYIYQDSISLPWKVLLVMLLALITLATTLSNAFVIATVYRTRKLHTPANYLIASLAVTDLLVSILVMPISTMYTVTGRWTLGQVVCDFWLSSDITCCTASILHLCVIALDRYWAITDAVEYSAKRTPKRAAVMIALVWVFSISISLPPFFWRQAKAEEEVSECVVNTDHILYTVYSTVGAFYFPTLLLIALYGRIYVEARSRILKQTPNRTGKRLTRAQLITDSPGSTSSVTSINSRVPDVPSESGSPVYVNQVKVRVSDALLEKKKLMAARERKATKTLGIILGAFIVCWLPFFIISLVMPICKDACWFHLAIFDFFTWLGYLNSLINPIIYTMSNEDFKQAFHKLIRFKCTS
Sigma non-opioid intracellular receptor 1 (Homo sapiens), sequence (Q99720 whole entry): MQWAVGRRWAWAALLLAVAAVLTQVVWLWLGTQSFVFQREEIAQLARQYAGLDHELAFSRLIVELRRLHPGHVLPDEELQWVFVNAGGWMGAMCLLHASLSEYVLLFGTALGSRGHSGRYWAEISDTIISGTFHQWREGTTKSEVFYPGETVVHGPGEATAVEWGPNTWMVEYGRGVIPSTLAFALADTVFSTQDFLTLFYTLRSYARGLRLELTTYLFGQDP
Delta-type opioid receptor (Homo sapiens), sequence (P41143 whole entry): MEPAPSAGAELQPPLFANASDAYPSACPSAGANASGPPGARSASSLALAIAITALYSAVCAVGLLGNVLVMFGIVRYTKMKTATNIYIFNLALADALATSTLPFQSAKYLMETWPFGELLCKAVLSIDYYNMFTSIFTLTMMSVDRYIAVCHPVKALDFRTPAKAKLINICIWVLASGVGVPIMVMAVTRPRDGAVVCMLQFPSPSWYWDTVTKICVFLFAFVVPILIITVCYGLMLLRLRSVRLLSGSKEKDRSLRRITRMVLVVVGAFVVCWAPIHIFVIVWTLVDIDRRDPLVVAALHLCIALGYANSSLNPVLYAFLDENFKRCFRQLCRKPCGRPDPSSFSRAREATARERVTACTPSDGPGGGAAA
Beta-3 adrenergic receptor (Homo sapiens), sequence (P13945 whole entry, looked up): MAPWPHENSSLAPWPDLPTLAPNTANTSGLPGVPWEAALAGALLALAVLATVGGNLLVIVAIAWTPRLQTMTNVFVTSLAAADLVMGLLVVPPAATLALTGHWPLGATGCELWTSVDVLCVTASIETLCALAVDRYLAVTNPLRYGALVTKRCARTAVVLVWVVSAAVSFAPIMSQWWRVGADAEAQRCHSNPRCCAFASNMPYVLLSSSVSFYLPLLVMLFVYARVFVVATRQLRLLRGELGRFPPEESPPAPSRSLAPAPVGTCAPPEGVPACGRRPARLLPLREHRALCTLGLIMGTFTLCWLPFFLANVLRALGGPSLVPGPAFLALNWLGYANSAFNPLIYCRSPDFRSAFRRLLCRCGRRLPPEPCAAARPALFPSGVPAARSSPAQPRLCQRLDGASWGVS
5-hydroxytryptamine receptor 2C (Homo sapiens), sequence (P28335 whole entry): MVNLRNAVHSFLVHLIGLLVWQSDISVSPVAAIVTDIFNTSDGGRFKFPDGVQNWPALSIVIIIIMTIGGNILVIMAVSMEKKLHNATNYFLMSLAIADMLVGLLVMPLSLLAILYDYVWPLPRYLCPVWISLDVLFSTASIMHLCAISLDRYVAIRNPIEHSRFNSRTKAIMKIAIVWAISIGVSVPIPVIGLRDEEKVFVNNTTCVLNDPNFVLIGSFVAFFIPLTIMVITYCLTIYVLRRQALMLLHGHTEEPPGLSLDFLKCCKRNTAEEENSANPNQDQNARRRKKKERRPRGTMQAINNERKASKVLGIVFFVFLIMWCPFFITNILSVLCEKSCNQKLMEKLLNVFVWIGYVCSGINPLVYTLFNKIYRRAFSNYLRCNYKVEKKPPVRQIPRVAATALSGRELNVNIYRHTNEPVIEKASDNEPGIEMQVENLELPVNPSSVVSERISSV

inhibition [1] [%]	inhibition [2] [%]	inhibition [3] [%]	inhibition [4] [%]	inhibition [5] [%]	inhibition [6] [%]	inhibition [7] [%]	inhibition [8] [%]	inhibition [9] [%]	inhibition [10] [%]	inhibition [11] [%]	inhibition [12] [%]	inhibition [13] [%]	inhibition [14] [%]	inhibition [16] [%]	inhibition [17] [%]	inhibition [18] [%]	Structure (SMILES)	residual activity [15] [%]
5.08	3	11.6	11.1	31.1	20.8	20.6	13.6	1.85	15.2	-5.9	3.95	36.1	-2.95	2.87	-1.62	-0.91	COCCCS(=O)(=O)c1cc(C)c(-c2ccc(F)c3c2CC[C@H]3Oc2ccc3c(c2)OC[C@H]3CC(=O)O)c(C)c1	82
18.6	9.84	20.2	9.38	22.6	24.4	8.37	15.1	9.64	25.4	5.84	-1.99	40.4	-5.97	-4.94	4.25	13.1	Cc1cc(OCCC(C)(C)O)cc(C)c1-c1ccc(F)c2c1CC[C@H]2Oc1ccc2c(c1)OC[C@H]2CC(=O)O	103
